Laboratory results: ChEMBL document CHEMBL5465560, “Selectivity Literature for EUbOPEN Chemogenomic Library” (2024)

Legend:
[1] = target: T1, Interleukin-1 receptor-associated kinase 4 (Homo sapiens) (UniProt Q9NWZ3); experiment: Selectivity interaction (KinomeScan (DiscoverX)) EUB0000655a IRAK4; conditions: at 10 µM
T1 sequence (whole entry): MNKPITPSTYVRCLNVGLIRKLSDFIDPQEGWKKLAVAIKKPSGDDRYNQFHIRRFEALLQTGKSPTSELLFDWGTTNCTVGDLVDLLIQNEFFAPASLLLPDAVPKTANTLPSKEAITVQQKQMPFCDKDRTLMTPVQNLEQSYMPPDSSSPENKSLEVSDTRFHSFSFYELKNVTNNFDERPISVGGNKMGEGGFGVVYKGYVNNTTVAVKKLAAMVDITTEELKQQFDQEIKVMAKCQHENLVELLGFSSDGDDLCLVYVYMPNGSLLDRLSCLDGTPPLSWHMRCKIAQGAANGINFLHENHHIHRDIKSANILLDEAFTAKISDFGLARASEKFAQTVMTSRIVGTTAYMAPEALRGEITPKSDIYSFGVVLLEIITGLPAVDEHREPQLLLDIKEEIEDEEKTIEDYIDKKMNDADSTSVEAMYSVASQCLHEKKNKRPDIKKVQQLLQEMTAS

[2] = test system: Fibroblast growth factor receptor 1 (Homo sapiens), P11362 [V561M]; experiment: (§1) Selectivity interaction (ProQinase) EUB0000171b FGFR1
Sequence of Fibroblast growth factor receptor 1 (Homo sapiens), P11362 [V561M] (P11362 whole entry V561M): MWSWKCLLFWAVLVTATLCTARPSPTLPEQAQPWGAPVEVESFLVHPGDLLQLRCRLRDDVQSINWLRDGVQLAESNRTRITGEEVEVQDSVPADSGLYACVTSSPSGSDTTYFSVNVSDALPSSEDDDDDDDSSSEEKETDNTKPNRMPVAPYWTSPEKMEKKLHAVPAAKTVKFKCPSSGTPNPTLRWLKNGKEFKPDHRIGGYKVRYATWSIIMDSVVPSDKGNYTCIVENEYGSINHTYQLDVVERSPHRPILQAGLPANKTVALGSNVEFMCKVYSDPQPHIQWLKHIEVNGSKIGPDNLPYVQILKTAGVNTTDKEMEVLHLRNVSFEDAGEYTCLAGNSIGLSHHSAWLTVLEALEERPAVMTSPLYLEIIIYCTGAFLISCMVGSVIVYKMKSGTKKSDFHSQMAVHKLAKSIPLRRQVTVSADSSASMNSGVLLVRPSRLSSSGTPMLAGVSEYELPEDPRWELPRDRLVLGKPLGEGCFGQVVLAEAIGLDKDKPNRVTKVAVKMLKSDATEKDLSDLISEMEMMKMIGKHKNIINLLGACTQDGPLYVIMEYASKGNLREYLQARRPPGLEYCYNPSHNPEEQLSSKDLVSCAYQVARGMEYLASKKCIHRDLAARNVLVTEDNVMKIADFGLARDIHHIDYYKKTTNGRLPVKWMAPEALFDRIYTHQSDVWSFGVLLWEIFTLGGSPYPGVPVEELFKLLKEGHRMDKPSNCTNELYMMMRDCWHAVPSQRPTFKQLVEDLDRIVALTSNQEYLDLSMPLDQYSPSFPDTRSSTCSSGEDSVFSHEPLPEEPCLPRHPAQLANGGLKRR

[3] = target: Fibroblast growth factor receptor 1 (Homo sapiens, UniProt P11362); experiment: as §1
Sequence of Fibroblast growth factor receptor 1 (P11362 22-822 limits assumed): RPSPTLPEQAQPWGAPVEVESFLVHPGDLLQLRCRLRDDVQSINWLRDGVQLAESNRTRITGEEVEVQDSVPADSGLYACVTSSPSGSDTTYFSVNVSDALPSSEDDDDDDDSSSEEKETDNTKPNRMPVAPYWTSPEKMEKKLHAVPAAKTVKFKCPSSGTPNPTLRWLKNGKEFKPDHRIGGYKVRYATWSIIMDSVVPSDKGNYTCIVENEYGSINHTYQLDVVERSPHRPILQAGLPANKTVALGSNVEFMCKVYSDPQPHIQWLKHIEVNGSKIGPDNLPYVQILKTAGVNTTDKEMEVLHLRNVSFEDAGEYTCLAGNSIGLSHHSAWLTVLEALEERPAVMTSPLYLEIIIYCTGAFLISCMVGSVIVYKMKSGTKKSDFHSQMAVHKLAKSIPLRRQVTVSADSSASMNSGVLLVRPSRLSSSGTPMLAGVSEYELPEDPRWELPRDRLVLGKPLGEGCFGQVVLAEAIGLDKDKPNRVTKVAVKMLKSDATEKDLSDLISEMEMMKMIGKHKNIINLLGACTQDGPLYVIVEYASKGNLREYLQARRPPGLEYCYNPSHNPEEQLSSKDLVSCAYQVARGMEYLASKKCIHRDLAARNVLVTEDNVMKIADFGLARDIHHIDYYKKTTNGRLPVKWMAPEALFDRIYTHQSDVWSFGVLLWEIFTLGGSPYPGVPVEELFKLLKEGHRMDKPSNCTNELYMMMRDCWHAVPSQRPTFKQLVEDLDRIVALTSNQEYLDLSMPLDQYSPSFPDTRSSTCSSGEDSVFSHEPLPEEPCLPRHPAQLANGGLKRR

[4] = target: Casein kinase II subunit alpha' (Homo sapiens) (UniProt P19784); experiment: Selectivity interaction (Kinase panel (KiNativ target engagement assay in Jurkat cells)) EUB0001635a CSNK2A2; type: cell-based; conditions: Selectivity number of off-targets 0.0, Selectivity number of targets 233.0, Source Knowledge https://www.sciencedirect.com/science/article/pii/S2451945619300674?via%3Dihub, at 1 µM
Sequence of Casein kinase II subunit alpha' (Homo sapiens) (P19784 whole entry, looked up): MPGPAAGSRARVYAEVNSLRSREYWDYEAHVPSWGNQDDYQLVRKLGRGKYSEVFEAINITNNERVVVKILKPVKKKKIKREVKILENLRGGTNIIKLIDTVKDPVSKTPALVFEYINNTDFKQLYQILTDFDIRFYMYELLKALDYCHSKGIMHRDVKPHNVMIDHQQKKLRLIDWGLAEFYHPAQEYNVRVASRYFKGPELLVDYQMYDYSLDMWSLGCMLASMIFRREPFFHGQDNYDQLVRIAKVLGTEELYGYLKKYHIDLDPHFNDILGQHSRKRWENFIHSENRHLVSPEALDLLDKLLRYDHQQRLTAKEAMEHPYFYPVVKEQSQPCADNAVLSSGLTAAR

[5] = target: Insulin-like growth factor 1 receptor (Homo sapiens, UniProt P08069); conditions: at 10 µM
[6] = target: Citron Rho-interacting kinase (Homo sapiens) (UniProt O14578); experiment: Selectivity interaction (KinomeScan (DiscoverX)) EUB0000607a CIT; conditions: at 10 µM
Sequence of Citron Rho-interacting kinase (Homo sapiens) (O14578 whole entry): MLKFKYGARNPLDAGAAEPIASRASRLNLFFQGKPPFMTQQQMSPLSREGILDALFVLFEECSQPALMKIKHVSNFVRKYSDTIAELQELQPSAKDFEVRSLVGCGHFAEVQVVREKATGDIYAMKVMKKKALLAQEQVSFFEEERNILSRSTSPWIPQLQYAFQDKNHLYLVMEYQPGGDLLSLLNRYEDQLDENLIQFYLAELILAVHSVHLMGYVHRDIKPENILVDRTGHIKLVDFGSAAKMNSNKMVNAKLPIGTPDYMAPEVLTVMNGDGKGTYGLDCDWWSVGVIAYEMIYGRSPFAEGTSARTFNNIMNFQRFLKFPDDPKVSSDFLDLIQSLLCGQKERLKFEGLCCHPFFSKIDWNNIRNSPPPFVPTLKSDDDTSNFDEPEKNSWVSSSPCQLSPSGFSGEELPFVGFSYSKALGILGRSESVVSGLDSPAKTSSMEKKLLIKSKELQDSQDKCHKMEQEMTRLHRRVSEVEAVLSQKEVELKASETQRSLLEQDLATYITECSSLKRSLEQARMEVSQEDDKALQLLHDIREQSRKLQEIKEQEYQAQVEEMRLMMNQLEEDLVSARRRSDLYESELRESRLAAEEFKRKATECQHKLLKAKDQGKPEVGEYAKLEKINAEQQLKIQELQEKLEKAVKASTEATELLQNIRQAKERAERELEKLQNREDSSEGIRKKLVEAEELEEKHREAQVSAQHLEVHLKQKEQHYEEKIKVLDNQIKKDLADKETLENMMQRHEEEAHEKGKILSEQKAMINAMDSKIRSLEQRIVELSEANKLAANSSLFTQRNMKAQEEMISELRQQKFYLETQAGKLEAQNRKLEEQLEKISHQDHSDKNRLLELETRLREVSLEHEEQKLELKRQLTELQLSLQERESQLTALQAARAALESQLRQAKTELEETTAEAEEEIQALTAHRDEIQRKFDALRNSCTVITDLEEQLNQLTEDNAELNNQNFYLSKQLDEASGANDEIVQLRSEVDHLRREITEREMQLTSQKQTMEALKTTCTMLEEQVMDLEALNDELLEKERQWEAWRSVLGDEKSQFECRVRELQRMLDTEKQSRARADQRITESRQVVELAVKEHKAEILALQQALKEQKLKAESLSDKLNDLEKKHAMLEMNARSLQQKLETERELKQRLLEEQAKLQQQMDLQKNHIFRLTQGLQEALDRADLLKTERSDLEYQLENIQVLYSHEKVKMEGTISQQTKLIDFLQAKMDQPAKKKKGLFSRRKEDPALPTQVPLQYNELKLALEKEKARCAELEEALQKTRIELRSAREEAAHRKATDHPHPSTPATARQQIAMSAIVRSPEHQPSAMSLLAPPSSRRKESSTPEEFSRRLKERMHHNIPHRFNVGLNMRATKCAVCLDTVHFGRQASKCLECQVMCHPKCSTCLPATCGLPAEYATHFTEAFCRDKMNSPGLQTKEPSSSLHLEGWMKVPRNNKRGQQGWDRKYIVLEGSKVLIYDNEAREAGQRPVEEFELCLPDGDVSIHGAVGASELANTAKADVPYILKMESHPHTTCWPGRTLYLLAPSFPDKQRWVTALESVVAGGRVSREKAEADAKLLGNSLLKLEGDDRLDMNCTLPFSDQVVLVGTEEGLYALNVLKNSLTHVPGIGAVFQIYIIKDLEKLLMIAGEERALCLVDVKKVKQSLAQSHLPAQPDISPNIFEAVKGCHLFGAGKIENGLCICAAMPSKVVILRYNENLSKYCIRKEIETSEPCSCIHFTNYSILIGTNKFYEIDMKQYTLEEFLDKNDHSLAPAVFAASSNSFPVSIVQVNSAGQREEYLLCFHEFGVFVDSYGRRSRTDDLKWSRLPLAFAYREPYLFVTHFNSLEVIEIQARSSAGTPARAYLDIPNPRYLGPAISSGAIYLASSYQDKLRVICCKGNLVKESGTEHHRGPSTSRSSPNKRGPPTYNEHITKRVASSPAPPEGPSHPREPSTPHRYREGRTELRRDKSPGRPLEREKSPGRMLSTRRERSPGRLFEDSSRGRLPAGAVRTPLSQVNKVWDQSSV

[7] = target: Ribosomal protein S6 kinase alpha-2 (Homo sapiens) (UniProt Q15349); experiment: Selectivity interaction (KinomeScan (DiscoverX)) EUB0000695a RPS6KA2; conditions: at 100 nM
[8] = target: T2, Serine/threonine-protein kinase D1 (Homo sapiens) (UniProt Q15139); conditions: at 10 µM
T2 sequence (whole entry): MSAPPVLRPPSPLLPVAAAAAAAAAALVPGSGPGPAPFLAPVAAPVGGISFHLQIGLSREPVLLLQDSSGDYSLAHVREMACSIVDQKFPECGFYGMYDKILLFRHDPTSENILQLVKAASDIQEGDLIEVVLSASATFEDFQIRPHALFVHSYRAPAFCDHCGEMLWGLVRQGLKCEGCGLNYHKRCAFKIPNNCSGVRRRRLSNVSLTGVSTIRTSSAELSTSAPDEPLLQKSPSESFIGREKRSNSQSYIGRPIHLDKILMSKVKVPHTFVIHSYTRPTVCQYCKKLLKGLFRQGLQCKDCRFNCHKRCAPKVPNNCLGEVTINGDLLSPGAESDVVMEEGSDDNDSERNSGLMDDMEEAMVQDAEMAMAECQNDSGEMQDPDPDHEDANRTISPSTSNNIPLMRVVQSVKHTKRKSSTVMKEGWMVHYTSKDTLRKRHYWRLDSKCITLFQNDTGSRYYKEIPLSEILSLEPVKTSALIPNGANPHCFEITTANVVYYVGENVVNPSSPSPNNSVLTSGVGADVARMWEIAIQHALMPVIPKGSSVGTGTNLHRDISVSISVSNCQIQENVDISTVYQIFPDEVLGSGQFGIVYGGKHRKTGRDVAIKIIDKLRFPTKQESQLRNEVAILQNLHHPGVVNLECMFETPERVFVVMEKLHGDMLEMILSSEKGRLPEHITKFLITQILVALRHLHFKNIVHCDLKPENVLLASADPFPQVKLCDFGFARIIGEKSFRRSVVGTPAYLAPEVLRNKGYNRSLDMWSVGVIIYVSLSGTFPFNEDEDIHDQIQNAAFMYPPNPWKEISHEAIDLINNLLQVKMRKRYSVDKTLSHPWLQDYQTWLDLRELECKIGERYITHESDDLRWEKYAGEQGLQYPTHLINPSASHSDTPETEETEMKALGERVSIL

[9] = target: T3, Activin receptor type-1B (Homo sapiens) (UniProt P36896); experiment: Selectivity interaction (KinomeScan (DiscoverX)) EUB0000045b ACVR1B
T3 sequence (whole entry): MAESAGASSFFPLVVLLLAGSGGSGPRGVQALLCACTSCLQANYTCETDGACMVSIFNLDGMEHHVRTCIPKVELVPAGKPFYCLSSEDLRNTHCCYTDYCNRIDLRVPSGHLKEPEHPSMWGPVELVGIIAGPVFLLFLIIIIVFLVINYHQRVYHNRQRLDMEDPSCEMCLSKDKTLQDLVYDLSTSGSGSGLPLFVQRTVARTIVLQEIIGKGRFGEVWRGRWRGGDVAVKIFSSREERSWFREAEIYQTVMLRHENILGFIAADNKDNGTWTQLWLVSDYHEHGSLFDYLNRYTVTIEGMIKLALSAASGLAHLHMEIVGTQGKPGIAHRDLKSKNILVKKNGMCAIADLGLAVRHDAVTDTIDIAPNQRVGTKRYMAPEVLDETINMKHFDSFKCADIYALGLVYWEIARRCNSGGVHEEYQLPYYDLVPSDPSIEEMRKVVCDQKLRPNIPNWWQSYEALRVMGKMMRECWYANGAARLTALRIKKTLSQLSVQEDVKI

[10] = target: Serine/threonine-protein kinase 38-like (Homo sapiens) (UniProt Q9Y2H1); experiment: Selectivity interaction (Ambit KINOMEscan and KiNATiv profiling in Jurkat cells) EUB0000090b STK38L; type: cell-based; conditions: at 1 µM
Sequence of Serine/threonine-protein kinase 38-like (Homo sapiens) (Q9Y2H1 2-464 limits assumed): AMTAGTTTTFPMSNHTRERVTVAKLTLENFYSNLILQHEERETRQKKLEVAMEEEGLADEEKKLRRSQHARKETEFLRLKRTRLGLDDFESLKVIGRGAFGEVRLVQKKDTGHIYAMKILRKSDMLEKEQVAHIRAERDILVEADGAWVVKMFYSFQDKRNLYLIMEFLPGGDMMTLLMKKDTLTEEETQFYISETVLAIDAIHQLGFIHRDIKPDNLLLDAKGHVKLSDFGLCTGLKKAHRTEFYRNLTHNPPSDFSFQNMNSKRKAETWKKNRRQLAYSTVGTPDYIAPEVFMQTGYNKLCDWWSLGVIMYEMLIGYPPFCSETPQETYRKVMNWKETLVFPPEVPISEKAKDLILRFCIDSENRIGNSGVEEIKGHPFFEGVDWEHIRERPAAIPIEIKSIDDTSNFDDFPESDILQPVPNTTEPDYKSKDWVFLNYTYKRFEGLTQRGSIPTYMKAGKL

[11] = target: Serine/threonine-protein kinase OSR1 (Homo sapiens) (UniProt O95747); experiment: Selectivity interaction (Ambit KINOMEscan and KiNATiv profiling in Jurkat cells) EUB0000090b OXSR1; type: cell-based; conditions: at 1 µM
Sequence of Serine/threonine-protein kinase OSR1 (Homo sapiens) (O95747 2-527 limits assumed): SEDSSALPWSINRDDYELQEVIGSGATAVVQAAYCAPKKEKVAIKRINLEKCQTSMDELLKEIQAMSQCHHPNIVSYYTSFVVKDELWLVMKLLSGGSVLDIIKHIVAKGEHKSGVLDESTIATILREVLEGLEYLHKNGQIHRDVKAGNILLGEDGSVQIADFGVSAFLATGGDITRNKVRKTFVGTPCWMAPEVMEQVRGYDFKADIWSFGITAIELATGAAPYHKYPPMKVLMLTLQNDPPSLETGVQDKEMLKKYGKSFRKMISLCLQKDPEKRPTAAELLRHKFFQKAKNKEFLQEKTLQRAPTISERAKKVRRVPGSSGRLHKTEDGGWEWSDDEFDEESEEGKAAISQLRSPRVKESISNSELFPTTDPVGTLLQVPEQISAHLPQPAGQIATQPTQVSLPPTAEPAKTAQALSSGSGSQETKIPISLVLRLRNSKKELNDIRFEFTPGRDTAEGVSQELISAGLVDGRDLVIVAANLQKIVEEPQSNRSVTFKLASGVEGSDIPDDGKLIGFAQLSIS

`CN(C)CCOc1ccc(-c2nc(-c3ccncc3)c(-c3ccc4c(c3)CC/C4=N\O)[nH]2)cc1` was tested, and the % of control [1] was 91%.
In the case of `C=CC(=O)Nc1cccc(C(=O)Nc2ccc(Nc3cc(-c4[nH]c(SC)nc4C)ccn3)cc2)c1`, the % of control ([2]; at 1 µM) is reported as 99%, the % of control ([2]; at 5 µM) is reported as 65% and the % of control ([3]; at 1 µM) is reported as 105%. The % of control ([3]; at 5 µM) was 87%.
With `C=CC(=O)Nc1ccc(C(=O)Nc2[nH]nc3c2CN(C(=O)N[C@H](CN(C)C)c2ccccc2)C3(C)C)cc1` the % of engagement [4] was -0.9%.
`Cc1cc([C@@H](C)Nc2ccccc2C(=O)O)c2nc(N3CCOCC3)cc(=O)n2c1` [AZD-6482] gave a % of control [5] of 100%.
In the case of `CNC(=O)Nc1ccc(-c2nc(N3CC4CCC(C3)O4)c3cnn(C4CCC5(CC4)OCCO5)c3n2)cc1`, the % of control [6] is reported as 100%.
For `Cc1cc(F)c(C(=O)Nc2cccc(-c3nncn3C(C)C)n2)cc1-n1cnc(C2CC2)c1`, the % of control [7] was 87%.
Molecule `COCC(=O)NC/C=C/c1ccc2ncnc(Nc3ccc(Oc4ccc(C)nc4)c(C)c3)c2c1` [CP-724714] has a % of control [8] of 85%.
`C=CC(=O)Nc1cc(-n2c(=O)ccc3cnc4ccc(-c5ccc(NS(C)(=O)=O)cc5)cc4c32)ccc1C` showed a % of control ([9]; at 1 µM) of 84% and a % of control ([9]; at 10 µM) of 100%.
`CN(C)C/C=C/C(=O)Nc1ccc(C(=O)N2CCCC(Nc3ncc(Cl)c(-c4c[nH]c5ccccc45)n3)C2)cc1` (centres undefined) gave a % of control [10] of 82% and a % of control [11] of 87%.
